ChEMBL document CHEMBL3045111, “Synthesis and herbicidal activities of novel 3-(substituted benzyloxy or phenoxy)-6-methyl-4-(3-trifluoromethylphenyl)pyridazine derivatives” (2012)
Calls of active or inactive are those of the source. The calls are words filed in the database; no cut-off is given here.

How the values were obtained:
[1] = tested on: Amaranthus retroflexus; test: Post-emergence herbicidal activity against one-leaf stage Amaranthus retroflexus under greenhouse condition at 150 g /ha measured after 24 days by spray method; type: functional; conditions: 576 h, read-out: GI
[2] = tested on: Brassica rapa subsp. oleifera; test: Post-emergence herbicidal activity against one-leaf stage Brassica rapa subsp. oleifera under greenhouse condition assessed as complete bleaching of leaves at 300 g /ha measured after 24 days by spray method; type: functional, organism-based
[3] = tested on: Digitaria; test: Post-emergence herbicidal activity against one-leaf stage of Digitaria adscendens under greenhouse condition at 750 g /ha measured after 24 days by spray method; type: functional; conditions: in Digitaria adscendens, 576 h, read-out: GI
[4] = tested on: Brassica rapa subsp. oleifera; test: Post-emergence herbicidal activity against one-leaf stage Brassica rapa subsp. oleifera under greenhouse condition at 750 g /ha measured after 24 days by spray method; type: functional; conditions: 576 h, read-out: GI
[5] = tested on: Echinochloa crus-galli; test: Post-emergence herbicidal activity against one-leaf stage of Echinochloa crus-galli (barnyard grass) under greenhouse condition at 750 g /ha measured after 24 days by spray method; type: functional; conditions: 576 h, read-out: GI
[6] = tested on: Amaranthus retroflexus; test: Post-emergence herbicidal activity against one-leaf stage Amaranthus retroflexus under greenhouse condition assessed as complete bleaching of leaves at 150 g /ha measured after 24 days by spray method; type: functional, organism-based
[7] = tested on: Spirodela polyrhiza; test: Bleaching herbicidal activity in Spirodela polyrhiza fronds cultured in compound-containing in medium assessed as chlorophyll inhibition at 10 ug/ml after 7 days; type: functional; conditions: 168 h
[8] = tested on: Brassica rapa subsp. oleifera; test: Post-emergence herbicidal activity against one-leaf stage Brassica rapa subsp. oleifera under greenhouse condition at 600 g /ha measured after 24 days by spray method; type: functional; conditions: 576 h, read-out: GI
[9] = tested on: Brassica rapa subsp. oleifera; test: Post-emergence herbicidal activity against one-leaf stage Brassica rapa subsp. oleifera under greenhouse condition assessed as complete bleaching of leaves at 600 g /ha measured after 24 days by spray method; type: functional, organism-based
[10] = tested on: Brassica rapa subsp. oleifera; test: Post-emergence herbicidal activity against one-leaf stage Brassica rapa subsp. oleifera under greenhouse condition at 150 g /ha measured after 24 days by spray method; type: functional; conditions: 576 h, read-out: GI
[11] = tested on: Brassica rapa subsp. oleifera; test: Post-emergence herbicidal activity against one-leaf stage Brassica rapa subsp. oleifera under greenhouse condition at 300 g /ha measured after 24 days by spray method; type: functional; conditions: 576 h, read-out: GI
[12] = tested on: Amaranthus retroflexus; test: Post-emergence herbicidal activity against one-leaf stage Amaranthus retroflexus under greenhouse condition at 600 g /ha measured after 24 days by spray method; type: functional; conditions: 576 h, read-out: GI
[13] = tested on: Brassica rapa subsp. oleifera; test: Post-emergence herbicidal activity against one-leaf stage Brassica rapa subsp. oleifera under greenhouse condition assessed as complete bleaching of leaves at 150 g /ha measured after 24 days by spray method; type: functional, organism-based
[14] = tested on: Amaranthus retroflexus; test: Post-emergence herbicidal activity against one-leaf stage of Amaranthus retroflexus under greenhouse condition at 750 g /ha measured after 24 days by spray method; type: functional; conditions: 576 h, read-out: GI
[15] = tested on: Echinochloa crus-galli; test: Pre-emergence herbicidal activity against Echinochloa crus-galli (barnyard grass) under greenhouse condition at 750 g /ha measured after 24 days by spray method; type: functional; conditions: 576 h, read-out: GI
[16] = tested on: Brassica rapa subsp. oleifera; test: Post-emergence herbicidal activity against one-leaf stage Brassica rapa subsp. oleifera under greenhouse condition at 75 g /ha measured after 24 days by spray method; type: functional; conditions: 576 h, read-out: GI
[17] = tested on: Digitaria; test: Pre-emergence herbicidal activity against Digitaria adscendens under greenhouse condition at 750 g /ha measured after 24 days by spray method; type: functional; conditions: in Digitaria adscendens, 576 h, read-out: GI
[18] = tested on: Amaranthus retroflexus; test: Post-emergence herbicidal activity against one-leaf stage Amaranthus retroflexus under greenhouse condition at 75 g /ha measured after 24 days by spray method; type: functional; conditions: 576 h, read-out: GI
[19] = tested on: Spirodela polyrhiza; test: Bleaching herbicidal activity in Spirodela polyrhiza fronds cultured in compound-containing in medium assessed as chlorophyll inhibition at 1 ug/ml after 7 days; type: functional; conditions: 168 h
[20] = tested on: Brassica rapa subsp. oleifera; test: Post-emergence herbicidal activity against one-leaf stage Brassica rapa subsp. oleifera under greenhouse condition assessed as complete bleaching of leaves at 75 g /ha measured after 24 days by spray method; type: functional, organism-based
[21] = tested on: Amaranthus retroflexus; test: Pre-emergence herbicidal activity against Amaranthus retroflexus under greenhouse condition at 750 g /ha measured after 24 days by spray method; type: functional; conditions: 576 h, read-out: GI
[22] = tested on: Brassica rapa subsp. oleifera; test: Pre-emergence herbicidal activity against Brassica rapa subsp. oleifera under greenhouse condition at 750 g /ha measured after 24 days by spray method; type: functional; conditions: 576 h, read-out: GI
[23] = tested on: Amaranthus retroflexus; test: Post-emergence herbicidal activity against one-leaf stage Amaranthus retroflexus under greenhouse condition at 300 g /ha measured after 24 days by spray method; type: functional; conditions: 576 h, read-out: GI
[24] = tested on: Amaranthus retroflexus; test: Post-emergence herbicidal activity against one-leaf stage Amaranthus retroflexus under greenhouse condition assessed as complete bleaching of leaves at 300 g /ha measured after 24 days by spray method; type: functional, organism-based
[25] = tested on: Amaranthus retroflexus; test: Post-emergence herbicidal activity against one-leaf stage Amaranthus retroflexus under greenhouse condition assessed as complete bleaching of leaves at 75 g /ha measured after 24 days by spray method; type: functional, organism-based
[26] = tested on: Amaranthus retroflexus; test: Post-emergence herbicidal activity against one-leaf stage Amaranthus retroflexus under greenhouse condition assessed as complete bleaching of leaves at 600 g /ha measured after 24 days by spray method; type: functional, organism-based

In the case of Cc1cc(-c2cccc(C(F)(F)F)c2)c(Oc2ccc(F)cc2)nn1, the inhibition of growth at 150 g/ha [1] is reported as 79%, the Activity [2] is reported as “Active” and the inhibition of growth at 750 g/ha [3] is reported as 68%. The inhibition of growth at 750 g/ha [4] was 95%, the inhibition of growth at 750 g/ha [5] was 35% and the Activity [6] was “Active”. The inhibition at 10 µg/mL [7] was 91%, the inhibition of growth at 600 g/ha [8] was 83% and the Activity [9] was “Active”. The inhibition of growth at 150 g/ha [10] was 61%, the inhibition of growth at 300 g/ha [11] was 70% and the inhibition of growth at 600 g/ha [12] was 100%. The Activity [13] was “Active”, the inhibition of growth at 750 g/ha [14] was 96% and the inhibition of growth at 750 g/ha [15] was 84%. The inhibition of growth at 75 g/ha [16] was 53%, the inhibition of growth at 750 g/ha [17] was 96% and the inhibition of growth at 75 g/ha [18] was 64%. For the same molecule, the inhibition at 1 µg/mL [19] was 75%, the Activity [20] was “Active” and the inhibition of growth at 750 g/ha [21] was 100%. For the same molecule, the inhibition of growth at 750 g/ha [22] was 98%, the inhibition of growth at 300 g/ha [23] was 90% and the Activity [24] was “Active”. The Activity [25] was “Active” and the Activity [26] was “Active”.
